Source: PubChem BioAssay AID1259407 (Chemical Carcinogenesis Research Information System (CCRIS), 2018)
The source made the active and inactive calls. The rule behind the calls is not given here.

Tested on: CCRIS mutagenicity, Ames/micronucleus/aberration tests
Experiment: CCRIS mutagenicity studies
Settings: Method: Preincubation

Measured: mutagenic call

CC12C=CC(C1)C1C(=O)OC(=O)C12 (stereo not given)
inactive: Test System: Ames Salmonella typhimurium, Strain/Indicator: TA98, Metabolic Activation: None inactive; negative | Test System: Ames Salmonella typhimurium, Strain/Indicator: TA98, Metabolic Activation: Rat, Liver, S-9, Phenobarbital and 5,6-benzoflavone inactive; negative | Test System: Ames Salmonella typhimurium, Strain/Indicator: TA100, Metabolic Activation: None inactive; negative | Test System: Ames Salmonella typhimurium, Strain/Indicator: TA100, Metabolic Activation: Rat, Liver, S-9, Phenobarbital and 5,6-benzoflavone inactive; negative | Test System: Ames Salmonella typhimurium, Strain/Indicator: TA1535, Metabolic Activation: None inactive; negative | Test System: Ames Salmonella typhimurium, Strain/Indicator: TA1535, Metabolic Activation: Rat, Liver, S-9, Phenobarbital and 5,6-benzoflavone inactive; negative | Test System: Ames Salmonella typhimurium, Strain/Indicator: TA1537, Metabolic Activation: None inactive; negative | Test System: Ames Salmonella typhimurium, Strain/Indicator: TA1537, Metabolic Activation: Rat, Liver, S-9, Phenobarbital and 5,6-benzoflavone inactive; negative | Test System: E. coli, Strain/Indicator: WP2uvrA/pKM101, Metabolic Activation: None inactive; negative | Test System: E. coli, Strain/Indicator: WP2uvrA/pKM101, Metabolic Activation: Rat, Liver, S-9, Phenobarbital and 5,6-benzoflavone inactive; negative
